Experimental data taken from paper PMC2817752, “Phenylbutyric Acid Rescues Endoplasmic Reticulum Stress-Induced Suppression of APP Proteolysis and Prevents Apoptosis in Neuronal Cells” (PLoS ONE, 2010).

Target: T1, γ-secretase (presenilin-1, PS1) (Mus musculus, UniProt P49769)
T1 construct: gene Psen1; endogenous γ-secretase complex in N2a (NAG) cells, APPGV16 as substrate; with Nicastrin and the other subunits of the heterotetrameric γ-secretase complex
Test: Gal4-luciferase reporter of γ-secretase cleavage of APPGV16 in stable N2a cells, […] h; CTF accumulation by western blot
Format: cell-based

IC50: ~1 µM
SMILES: C[C@H](NC(=O)Cc1cc(F)cc(F)c1)C(=O)N[C@H](C(=O)OC(C)(C)C)c1ccccc1 [DAPT]
